Laboratory results as given in US20230287416A1, “COMBINATORY TREATMENT OF SMA WITH SARNA AND MRNA MODULATORS” (RACTIGEN THERAPEUTICS, priority 2020, published 2023).

Columns and labels:
Type in all cases: cell-based, human
SMN2 mRNA [1] = assay: Semi-quantitative RT-PCR (DdeI digestion) of SMN2FL and SMN2 Δ7 in GM03813 cells; settings: GM03813, 72 h
Procedure: Seventy-two hours later, total cellular RNA was isolated from the treated cells and reverse transcribed into cDNA. SMN2 mRNA expression was assessed with RT-qPCR using primer pairs specific for SMN2FL or SMN2 Δ7. SMN2 mRNA expression was also assessed by semi-quantitative RT-PCR using a primer pair that amplifies both SMN2FL and SMN2 Δ7 followed by DdeI digestion (PCR/digestion). […] After digestion, both bands were reduced by 115 bp, resulting in two products: 392 bp (SMN2FL) and 338 bp (SMN2 Δ7) as shown on the gel of FIG. 3D. FIG. 3A-3D show dose-dependent changes in SMN2FL and SMNΔ7 mRNA as assessed by RT-qPCR and PCR/digestion respectively. FIG. 3E-3G are graphic plots of data from quantitating the intensity of bands in FIG. 3D.
(§1) SMA patient derived fibroblasts were obtained from Coriell Institute (Camden, N.J., USA), including GM00232 (SMA type I with 2 copies of SMN2 gene) and GM03813 (SMA type II with 3 copies of SMN2 gene). These cells were cultured at 5% C02 and 37° C. in modified MEM medium (Gibco, Thermo Fisher Scientific, Carlsbad, Calif.) supplemented with 15% bovine calf serum (Sigma-Aldrich), 1% NEAA (Gibco) and 1% penicillin/streptomycin (Gibco). To transfect oligonucleotides including saRNAs, siRNA and ASO, cells were seeded into 6-well plates at a density of 1×10^5 cells/well and were transfected with oligonucleotides at different concentrations using RNAiMax (Invitrogen, Carlsbad, Calif.) according to the reverse transfection protocol provided by the manufacturer for 72 hours (unless otherwise specified). For Risdiplam treatment of cells, Risdiplam (HY-109101, MedChem Express Company, Monmouth Junction, N.J., USA) dissolved in DMSO was added directly to cells at desired concentration for 72 hours unless specified otherwise.
To amplify both SMN2FL and SMN2 Δ7 in one reaction, cDNA was amplified by semi-quantitative RT-PCR using primers that spans exon 7 of SMN2 (Table 5) (FIG. 2). The PCR reaction conditions were: 94° C. for 2 minutes (1 cycle), 98° C. for 10 seconds, 60° C. for 15 seconds, 72° C. for 32 seconds, cycled for 30 time with a final 5 minutes extension at 72° C. To further differentiate SMN1 mRNA from SMN2, the resultant PCR products of SMN were digested by DdeI restriction enzyme (R0175L, NEB) and then separated by 2% agarose gel. Due to a nucleotide variant on […] of SMN2, a DdeI recognition site exists in PCR products amplified from SMN2 gene but not from SMN1 gene, DdeI digestion releases a 115 bp fragment from both SMN2FL and SMN2 Δ7, resulting […]: 507 (SMN1FL), 338 (SMN2 Δ7), 392 (SMN2FL) and 115 bp (FIG. 2). TBP gene was also amplified as a RNA loading control. The DdeI digestion reaction conditions were: 37° C. for 60 minutes and 65° C. for 20 minutes, 1cycle.

SMN2 mRNA [2] = assay: Semi-quantitative RT-PCR/DdeI digestion of SMN2FL and SMN2 Δ7 in GM00232 cells; settings: GM00232, 72 h
Procedure: (§2) To determine whether the combination of saRNA (DS06-0004) and ASO-10-27 has an enhanced effect on SMN2FL induction in type I SMA cells, GM00232 cells were transfected with DS06-0004 and ASO-10-27 alone or in combination at different concentrations for 72 hours. SMN2 expression was assessed in the treated cells by RT-qPCR (FIGS. 4A and 4D) and PCR/digestion (FIGS. 4B, 4C and 4E).
as §1, with “For Risdiplam treatment of cells, Risdiplam (HY-109101, MedChem Express Company, Monmouth Junction, N.J., USA) dissolved in DMSO was added directly to cells at desired concentration for 72 hours unless specified otherwise.” left out
To amplify both SMN2FL and SMN2 Δ7 in one reaction, cDNA was amplified by semi-quantitative RT-PCR using primers that spans exon 7 of SMN2 (Table 5) (FIG. 2). […]

SMN2 mRNA [3] = assay: RT-qPCR of SMN2FL and SMN2 Δ7 mRNA in GM00232 cells; settings: GM00232, 72 h
SMN2 mRNA [4] = assay: as above; settings: GM00232, 72 h; remark: listed apart in the source
Procedure: as §2
“GM00232 cells” refers to fibroblast cells provided by Coriell Institute for Medical Research. This cell line is described as SPINAL MUSCULAR ATROPHY I; SMA1. The donor subject has 2 copies of the SMN2 gene (data from several sources including Stabley et al. 2015, PMID 26247043) and is homozygous for deletion of exons 7 and 8 of the SMN1 gene. The relevant gene is SMN1; the chromosomal location is 5q12.2-q13.3, the allelic variant is described as exons 7 and 8 deleted; SPINAL MUSCULAR ATROPHY, TYPE I; and the identified mutation: is EX7-8DEL. The phenotype data derived from a fibroblast from skin (arm) of the following subject characterized as: Progressive muscular atrophy; absent deep tendon reflexes; abnormal EMG; donor subject has 2 copies of the SMN2 gene (data from several sources including Stabley et al. 2015, PMID 26247043) and is homozygous for deletion of exons 7 and 8 of the SMN1 gene.
as §1
For RNA isolation from cultured cells, total cellular RNA was isolated from treated cells using an RNeasy Plus Mini kit (Qiagen, Hilden, Germany) according to its manual. To isolated RNA from animal tissues, tissues were harvested and stored at RNA later (AM7021, Thermo Fisher). Total RNA was then isolated using MagPure Total RNA Micro LQ kit (Magen, R6621, China) by auto-pure96 machine (ALLSHENG, China). The resultant RNA (1 μg) was reverse transcribed into cDNA by using a PrimeScript RT kit containing gDNA Eraser (Takara, Shlga, Japan). The resultant cDNA was amplified in an ABI 7500 Fast Real-time PCR System (Applied Biosystems; Foster City, Calif.) using SYBR Premix Ex Taq 11 (Takara, Shlga, Japan) reagents and primers which specifically amplified full-length (SMN2FL) or A7 SMN2 mRNA (SMN2 Δ7) (FIG. 1). The reaction conditions were: 95° C. for 3 seconds (1 cycle) and 60° C. for 30 seconds (40 cycles). Amplification of TBP gene served as an internal control.

[5] = PCR/digestion (Example 1, FIG. 3E)

**Q.** How did the “SMN2FL mRNA fold change” value (SMN2 mRNA [1]; 1250 nM, PCR/DdeI digestion (Example 8, FIG. 10D-10F)) turn out when Cc1cn2nc(-c3cc(=O)n4cc(N5CCNC6(CC6)C5)ccc4n3)cc(C)c2n1 [Risdiplam] was run?
**A.** 2.1 fold

**Q.** What about the “SMN2FL mRNA fold change” value (SMN2 mRNA [2]; 1250 nM, PCR/DdeI digestion (Example 6, FIG. 8D-8F)) of the same compound?
**A.** 2.3 fold

**Q.** What about the “SMN2FL mRNA fold change” value (SMN2 mRNA [3]; 50 nM (Example 6, FIG. 8A-8C)) of the same compound?
**A.** 1.2 fold

**Q.** And the “SMN2 Δ7 mRNA change” value (SMN2 mRNA [3]; 50 nM, 250 nM and 1250 nM (Example 6))?
**A.** decrease

**Q.** And the “SMN2FL mRNA fold change” value (SMN2 mRNA [3]; 250 nM (Example 6))?
**A.** 1.8 fold

**Q.** What about the “SMN2FL mRNA fold change” value (SMN2 mRNA [3]; 1250 nM (Example 6)) of the same compound?
**A.** 1.9 fold

**Q.** With “DS06-0004: saRNA targeting SMN2 promoter at -281; SEQ ID NO: 476/477 (Table 8: SEQ ID NO: 131/288) (chain 1 AGACGAGGCCUAAGCAACATT; chain 2 UGUUGCUUAGGCCUCGUCUTT; chemistry not given here)” as the compound, how does the “SMN2 Δ7 mRNA fold change” value (SMN2 mRNA [4]; 1 nM (Example 2)) read?
**A.** 1.5 fold

**Q.** And the “SMN2FL mRNA fold change” value (SMN2 mRNA [4]; 1 nM (Example 2, FIG. 4A))?
**A.** 1.7 fold

**Q.** And the “SMN2FL mRNA fold change” value (SMN2 mRNA [4]; 5 nM (Example 2))?
**A.** 2.4 fold

**Q.** What about the “SMN2 Δ7 mRNA fold change” value (SMN2 mRNA [4]; 5 nM (Example 2)) of the same compound?
**A.** 1.9 fold

**Q.** What about the “SMN2FL mRNA fold change” value (SMN2 mRNA [4]; 25 nM (Example 2)) of the same compound?
**A.** 2.4 fold

**Q.** And the “SMN2FL mRNA fold change” value (SMN2 mRNA [3]; 1 nM (Example 6))?
**A.** 1.8 fold

**Q.** And the “SMN2 Δ7 mRNA fold change” value (SMN2 mRNA [3]; 1 nM (Example 6))?
**A.** 1.6 fold

**Q.** And the “SMN2FL mRNA fold change” value (SMN2 mRNA [3]; 5 nM (Example 6))?
**A.** 2.1 fold

**Q.** And the “SMN2 Δ7 mRNA fold change” value (SMN2 mRNA [3]; 5 nM (Example 6))?
**A.** 1.6 fold

**Q.** What about the “SMN2 Δ7 mRNA fold change” value (SMN2 mRNA [3]; 25 nM (Example 2)) of the same compound?
**A.** 2.1 fold

**Q.** And the “SMN2FL mRNA fold change” value (SMN2 mRNA [3]; 25 nM (Example 6))?
**A.** 2.0 fold

**Q.** What about the “SMN2 Δ7 mRNA fold change” value (SMN2 mRNA [3]; 25 nM (Example 6)) of the same compound?
**A.** 1.7 fold

**Q.** How did the “SMN2FL mRNA fold change” value (SMN2 mRNA [1]; 25 nM, semi-quantitative RT-PCR/DdeI digestion (Example 4, FIG. 6B-6C)) turn out when Nusinersen [ASO-10-27] was run?
**A.** 2.1 fold

**Q.** And the “concentration at which expression of SMN2FL reached its peak” value (SMN2 mRNA [1]; [5])?
**A.** 10 nM

**Q.** What about the “concentration at which expression of SMNΔ7 almost approached the lowest value” (SMN2 mRNA [1]; [5]) of the same compound?
**A.** 5 nM

**Q.** And the “SMN2FL mRNA fold change” value (SMN2 mRNA [1]; alone or in combination at 10 nM, semi-quantitative RT-PCR (Example 10, FIG. 12B-12C))?
**A.** 1.4 fold

**Q.** And the “SMN2FL mRNA fold change” value (SMN2 mRNA [4]; 1 nM (Example 2, FIG. 4A))?
**A.** 1.3 fold

**Q.** And the “SMN2 Δ7 mRNA change” value (SMN2 mRNA [4]; 1 nM, 5 nM and 25 nM (Example 2))?
**A.** decrease

**Q.** And the “SMN2FL mRNA fold change” value (SMN2 mRNA [4]; 5 nM (Example 2))?
**A.** 1.8 fold

**Q.** And the “SMN2FL mRNA fold change” value (SMN2 mRNA [4]; 25 nM (Example 2))?
**A.** 1.9 fold

**Q.** And the “SMN2FL mRNA fold change” value (SMN2 mRNA [2]; 25 nM, PCR/DdeI digestion (Example 2, FIG. 4B-4C))?
**A.** 2.3 fold
